# How the values were obtained:
# [1] = target: T1, human GRIN1 (transcript variant NR1-3) and GRIN2D expressed in Xenopus oocytes (Homo sapiens, UniProt O15399); experiment: NR2D oocyte potentiation assay (two-electrode voltage clamp); type: cell-based; conditions: 10 uM test compound; glutamate and glycine 10 μM each; holding potential −40 mV
# T1 construct: GenScript (GRIN2D synthesis) SC115601; host or cells: Xenopus oocytes injected with cRNA (1 GluN1 : 2 GluN2)
# Outline: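 Xenopus oocytes were defolliculated with collagenase, then injected with 50 nL of cRNA encoding human GluN1 (NR1-3 variant) and GluN2D mixed 1:2 and kept 72 h at 16° C. Two-electrode voltage clamp at −40 mV recorded currents; after 10 μM glutamate plus 10 μM glycine reached plateau, test compound was added until a new plateau formed.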
# [2] = target: T2, human GRIN1 (variant NR1-3) and GRIN2D expressed in HEK293 cells (Homo sapiens, UniProt O15399); experiment: GluN2D PAM CIQ fluorescence assay (Fluo-8 calcium, FDSS 6000); type: cell-based; conditions: relative to CIQ (100 uM) = 100%, read-out: NR2D Percent CIQ Avg Max Measured Effect
# T2 construct: GenScript (GRIN2D synthesis) SC115601; host or cells: HEK293
# T2 sequence (O15399 28-1336, other chains not shown): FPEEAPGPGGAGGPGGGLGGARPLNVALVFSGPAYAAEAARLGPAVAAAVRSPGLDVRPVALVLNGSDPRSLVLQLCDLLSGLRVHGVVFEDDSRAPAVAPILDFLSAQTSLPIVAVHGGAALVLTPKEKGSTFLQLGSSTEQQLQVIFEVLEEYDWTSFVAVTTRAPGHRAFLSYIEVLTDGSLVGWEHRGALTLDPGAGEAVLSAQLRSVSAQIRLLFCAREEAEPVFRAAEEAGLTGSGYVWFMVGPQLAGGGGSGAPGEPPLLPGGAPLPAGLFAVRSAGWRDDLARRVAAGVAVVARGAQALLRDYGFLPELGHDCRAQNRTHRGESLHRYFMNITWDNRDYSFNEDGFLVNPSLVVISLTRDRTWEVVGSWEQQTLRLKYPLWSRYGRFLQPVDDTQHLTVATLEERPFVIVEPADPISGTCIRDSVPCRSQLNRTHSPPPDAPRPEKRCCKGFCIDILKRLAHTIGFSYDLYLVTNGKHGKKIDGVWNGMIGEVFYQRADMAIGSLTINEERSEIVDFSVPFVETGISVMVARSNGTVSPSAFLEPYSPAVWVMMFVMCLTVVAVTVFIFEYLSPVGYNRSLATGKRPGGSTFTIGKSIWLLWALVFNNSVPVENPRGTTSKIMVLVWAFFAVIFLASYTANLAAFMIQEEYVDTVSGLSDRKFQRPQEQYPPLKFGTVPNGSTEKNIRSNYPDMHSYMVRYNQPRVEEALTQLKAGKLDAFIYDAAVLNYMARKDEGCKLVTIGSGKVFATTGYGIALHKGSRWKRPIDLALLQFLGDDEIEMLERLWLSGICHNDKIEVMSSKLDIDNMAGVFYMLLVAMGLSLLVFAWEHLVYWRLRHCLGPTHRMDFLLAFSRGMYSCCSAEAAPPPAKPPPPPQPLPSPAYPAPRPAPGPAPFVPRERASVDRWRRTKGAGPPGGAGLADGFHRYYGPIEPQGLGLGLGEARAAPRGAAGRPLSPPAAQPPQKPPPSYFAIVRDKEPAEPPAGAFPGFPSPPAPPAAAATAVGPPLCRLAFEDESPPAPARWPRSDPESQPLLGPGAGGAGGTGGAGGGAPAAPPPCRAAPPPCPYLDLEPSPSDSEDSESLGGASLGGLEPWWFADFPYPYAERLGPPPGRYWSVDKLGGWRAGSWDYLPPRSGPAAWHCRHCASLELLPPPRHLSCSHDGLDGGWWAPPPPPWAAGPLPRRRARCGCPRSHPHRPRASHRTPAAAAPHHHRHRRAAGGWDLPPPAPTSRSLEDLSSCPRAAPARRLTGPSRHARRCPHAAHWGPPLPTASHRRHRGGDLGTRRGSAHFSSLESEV
# T1 sequence (O15399 28-1336, other chains not shown): as above
SMILES,activation at 10 µM [1],Emax [2]
"CC(C)(C)c1ccc(-c2nc3n(c(=O)c2C#N)CCCS3)nc1 [Example 183, 8-(5-tert-butylpyridin-2-yl)-6-oxo-2H,3H,4H,6H-pyrimido[2,1-b][1,3]thiazine-7-carbonitrile]",10 to 100%,100 to 200%
"CC1CSc2nc(-c3ccc(C(C)(C)C)nc3)c(C#N)c(=N)n2C1 (stereo not drawn) [Example 63, 8-(6-(tert-butyl)pyridin-3-yl)-6-imino-3-methyl-3,4-dihydro-2H,6H-pyrimido[2,1-b][1,3]thiazine-7-carbonitrile]",> 1000%,> 200%
"CC1CSc2nc(-c3cnc(C(C)(C)C)nc3)c(C#N)c(=O)n2C1 (stereo not drawn) [Example 49, 8-(2-(tert-butyl)pyrimidin-5-yl)-3-methyl-6-oxo-3,4-dihydro-2H,6H-pyrimido[2,1-b][1,3]thiazine-7-carbonitrile]",> 1000%,> 200%
